Source: patent US12679878B2, “CRF2 receptor agonists and their use in therapy” (SANOFI, priority 2020, dated 2026)
Starred links: 1 amine or outer side, 2 acyl side, 3 side chain; linkers in the order of their positions; H or OH if unused. Non-standard residues stand in square brackets, D forms with d. Residues, ends and D or L forms follow the SMILES beside them. Groups on a side chain read outwards from the residue. *: point of attachment. C20 diacid = O=C(O)CCCCCCCCCCCCCCCCCCC(=O)*; C18 diacid = O=C(O)CCCCCCCCCCCCCCCCC(=O)*; γGlu = O=C(O)[C@H](CCC(=O)[*:2])N[*:1]; AEEA = NCCOCCOCC(=O)O; Aib = CC(C)(N)C(=O)O

target: T1, human CRF2α receptor (Homo sapiens, UniProt Q13324); assay: cAMP agonism at human CRF2 α receptor in TeloHEAC cells (Example 7); type: cell-based; details: cAMP HTRF, TeloHEAC cells stably expressing human CRF2 α, 0% HSA; read-out: EC50 [nM], 0% HSA
T1 construct: expressed in transfected cells; host or cells: TeloHEAC
T1 sequence (Q13324 1-411): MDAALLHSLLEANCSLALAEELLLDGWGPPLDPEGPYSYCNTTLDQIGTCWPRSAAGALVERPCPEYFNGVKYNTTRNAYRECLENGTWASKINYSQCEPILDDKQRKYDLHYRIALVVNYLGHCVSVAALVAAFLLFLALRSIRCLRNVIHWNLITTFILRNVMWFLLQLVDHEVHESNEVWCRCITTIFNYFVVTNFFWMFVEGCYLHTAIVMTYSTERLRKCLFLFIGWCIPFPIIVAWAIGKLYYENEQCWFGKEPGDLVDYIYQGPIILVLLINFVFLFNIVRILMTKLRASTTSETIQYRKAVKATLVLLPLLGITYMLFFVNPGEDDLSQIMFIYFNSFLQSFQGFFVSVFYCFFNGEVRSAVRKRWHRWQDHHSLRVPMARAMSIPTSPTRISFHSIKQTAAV
How it was run: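 HTRF ratio 665/620 nm, read 1 h after lysis reagents, reports cAMP. Cells: thawed stocks, 2000/well, 30 min RT with compound in HBSS, 20 mM HEPES, 0 or 0.1% HSA, 2 mM IBMX. Activity normalised to UCN2 1000 nM = 100%; EC50 from half-maximal activation.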

Row | SMILES | EC50
1 | CC[C@H](C)[C@H](NC(=O)[C@H](CCC(N)=O)NC(=O)[C@H](CCCCNC(=O)COCCOCCNC(=O)COCCOCCNC(=O)CC[C@H](NC(=O)CCCCCCCCCCCCCCCCC(=O)O)C(=O)O)NC(=O)[C@H](CC(C)C)NC(=O)CNC(=O)[C@@H](NC(=O)[C@@H]1CCCN1C(=O)[C@@H](NC(=O)[C@H](CC(=O)O)NC(=O)[C@H](CC(C)C)NC(=O)[C@H](CO)NC(=O)[C@H](CC(C)C)NC(=O)[C@@H](NC(=O)[C@@H](N)Cc1ccccc1)[C@@H](C)O)C(C)C)[C@@H](C)CC)C(=O)N[C@@H](CC(C)C)C(=O)N[C@@H](CC(C)C)C(=O)N[C@@H](CCCCN)C(=O)N[C@@H](CCC(N)=O)C(=O)N[C@@H](CCC(N)=O)C(=O)N[C@@H](CCCCN)C(=O)N[C@@H](CCC(N)=O)C(=O)N[C@@H](CCCCN)C(=O)N[C@@H](CCCCN)C(=O)N[C@@H](CCC(=O)O)C(=O)N[C@@H](CCCNC(=N)N)C(=O)N[C@@H](CCC(N)=O)C(=O)N[C@@H](CCCCN)C(=O)N[C@@H](C)C(=O)N[C@@H](CCC(=O)O)C(=O)N[C@H](C(=O)N[C@@H](CC(N)=O)C(=O)N[C@H](C(=O)N[C@@H](CCC(N)=O)C(=O)N[C@@H](CC(C)C)C(=O)N[C@@H](CC(C)C)C(=O)N[C@@H](CCC(=O)O)C(=O)N[C@@H](CCCNC(=N)N)C(=O)N[C@H](C(N)=O)C(C)C)C(C)C)[C@@H](C)O [compound 57] (H-FTLSLDVPIGLK([AEEA-AEEA-γGlu-C18 diacid])QILLKQQKQKKERQKAETNVQLLERV-NH2; N-terminus assumed) | 38.8 nM
2 | CC[C@H](C)[C@H](NC(=O)[C@H](CCC(N)=O)NC(=O)[C@H](CCCCNC(=O)COCCOCCNC(=O)COCCOCCNC(=O)CC[C@H](NC(=O)CCCCCCCCCCCCCCCCCCC(=O)O)C(=O)O)NC(=O)[C@@H](NC(=O)[C@H](CCCCN)NC(=O)[C@@H](NC(=O)[C@@H]1CCCN1C(=O)[C@@H](NC(=O)[C@H](CC(=O)O)NC(=O)[C@H](CC(C)C)NC(=O)[C@H](CO)NC(=O)[C@H](CC(C)C)NC(=O)[C@@H](NC(=O)[C@@H](N)Cc1ccccc1)[C@@H](C)O)C(C)C)[C@@H](C)O)[C@@H](C)CC)C(=O)N[C@@H](CC(C)C)C(=O)N[C@@H](CC(C)C)C(=O)N[C@@H](CCCCN)C(=O)N[C@@H](CCC(N)=O)C(=O)N[C@@H](CCC(N)=O)C(=O)N[C@@H](CCCCN)C(=O)N[C@@H](CCC(N)=O)C(=O)N[C@@H](CCCCN)C(=O)N[C@@H](CCCCN)C(=O)N[C@@H](CCC(=O)O)C(=O)N[C@@H](CCCNC(=N)N)C(=O)N[C@@H](CCC(N)=O)C(=O)N[C@@H](CCCCN)C(=O)N[C@@H](C)C(=O)N[C@@H](CCC(=O)O)C(=O)N[C@H](C(=O)N[C@@H](CC(N)=O)C(=O)N[C@H](C(=O)N[C@@H](CCC(N)=O)C(=O)N[C@@H](CC(C)C)C(=O)N[C@@H](CC(C)C)C(=O)N[C@@H](CCC(=O)O)C(=O)N[C@@H](CCCNC(=N)N)C(=O)N[C@H](C(N)=O)C(C)C)C(C)C)[C@@H](C)O [compound 64] (H-FTLSLDVPTKIK([AEEA-AEEA-γGlu-C20 diacid])QILLKQQKQKKERQKAETNVQLLERV-NH2) | 13.2 nM
3 | CC[C@H](C)[C@H](NC(=O)[C@H](CCC(N)=O)NC(=O)[C@H](CCCCNC(=O)COCCOCCNC(=O)COCCOCCNC(=O)CC[C@H](NC(=O)CCCCCCCCCCCCCCCCCCC(=O)O)C(=O)O)NC(=O)[C@H](CC(C)C)NC(=O)CNC(=O)[C@@H](NC(=O)[C@@H]1CCCN1C(=O)[C@@H](NC(=O)[C@H](CC(=O)O)NC(=O)[C@H](CC(C)C)NC(=O)[C@H](CO)NC(=O)[C@H](CC(C)C)NC(=O)[C@@H](NC(=O)[C@@H](N)Cc1ccccc1)[C@@H](C)O)C(C)C)[C@@H](C)CC)C(=O)N[C@@H](CC(C)C)C(=O)N[C@@H](CC(C)C)C(=O)N[C@@H](CCCCN)C(=O)N[C@@H](CCC(N)=O)C(=O)N[C@@H](CCC(N)=O)C(=O)N[C@@H](CCCCN)C(=O)N[C@@H](CCC(N)=O)C(=O)N[C@@H](CCCCN)C(=O)N[C@@H](CCCCN)C(=O)N[C@@H](CCC(=O)O)C(=O)N[C@@H](CCCNC(=N)N)C(=O)N[C@@H](CCC(N)=O)C(=O)N[C@@H](CCC(N)=O)C(=O)N[C@@H](C)C(=O)N[C@@H](CCC(=O)O)C(=O)N[C@H](C(=O)N[C@@H](CC(N)=O)C(=O)N[C@H](C(=O)N[C@@H](CCC(N)=O)C(=O)N[C@@H](CC(C)C)C(=O)N[C@@H](CC(C)C)C(=O)N[C@@H](CCC(=O)O)C(=O)N[C@@H](CCCNC(=N)N)C(=O)N[C@H](C(N)=O)C(C)C)C(C)C)[C@@H](C)O [compound 65] (H-FTLSLDVPIGLK([AEEA-AEEA-γGlu-C20 diacid])QILLKQQKQKKERQQAETNVQLLERV-NH2) | 9.31 nM
4 | CC[C@H](C)[C@H](NC(=O)[C@H](CCC(N)=O)NC(=O)[C@H](CCCCNC(=O)COCCOCCNC(=O)COCCOCCNC(=O)CC[C@H](NC(=O)CCCCCCCCCCCCCCCCCCC(=O)O)C(=O)O)NC(=O)[C@H](CC(C)C)NC(=O)CNC(=O)[C@@H](NC(=O)[C@@H]1CCCN1C(=O)[C@@H](NC(=O)[C@H](CC(=O)O)NC(=O)[C@H](CC(C)C)NC(=O)[C@H](CO)NC(=O)[C@H](CC(C)C)NC(=O)[C@@H](NC(=O)[C@@H](N)Cc1ccccc1)[C@@H](C)O)C(C)C)[C@@H](C)CC)C(=O)N[C@@H](CC(C)C)C(=O)N[C@@H](CC(C)C)C(=O)N[C@@H](CCCCN)C(=O)N[C@@H](CCC(N)=O)C(=O)N[C@@H](CCC(N)=O)C(=O)N[C@@H](CCCCN)C(=O)N[C@@H](CCC(N)=O)C(=O)N[C@@H](CCCCN)C(=O)N[C@@H](CCCCN)C(=O)N[C@@H](CCC(=O)O)C(=O)N[C@@H](CCCNC(=N)N)C(=O)N[C@@H](CCC(N)=O)C(=O)N[C@@H](CCCCN)C(=O)N[C@@H](C)C(=O)N[C@@H](CCC(=O)O)C(=O)N[C@H](C(=O)N[C@@H](CC(N)=O)C(=O)N[C@H](C(=O)N[C@@H](CCC(N)=O)C(=O)N[C@@H](CC(C)C)C(=O)N[C@@H](CC(C)C)C(=O)N[C@@H](CCC(=O)O)C(=O)N[C@@H](CCCNC(=N)N)C(=O)N[C@H](C(N)=O)C(C)C)C(C)C)[C@@H](C)O [compound 66] (H-FTLSLDVPIGLK([AEEA-AEEA-γGlu-C20 diacid])QILLKQQKQKKERQKAETNVQLLERV-NH2; N-terminus assumed) | 25.4 nM

Now from value to compound:

Row | EC50 | SMILES
5 | 3.15 nM | CC[C@H](C)[C@H](N)C(=O)N[C@H](C(=O)N[C@@H](CC(C)C)C(=O)N[C@@H](CO)C(=O)N[C@@H](CC(C)C)C(=O)N[C@@H](CC(=O)O)C(=O)N[C@H](C(=O)N1CCC[C@H]1C(=O)N[C@H](C(=O)N[C@@H](CCCCN)C(=O)N[C@@H](CC(C)C)C(=O)N[C@@H](CCCCNC(=O)COCCOCCNC(=O)COCCOCCNC(=O)CC[C@H](NC(=O)CCCCCCCCCCCCCCCCC(=O)O)C(=O)O)C(=O)N[C@@H](CCCCN)C(=O)NC(C)(C)C(=O)N[C@@H](CC(C)C)C(=O)N[C@@H](CC(C)C)C(=O)N[C@@H](CCC(=O)O)C(=O)N[C@@H](CCC(N)=O)C(=O)N[C@@H](CCC(=O)O)C(=O)N[C@@H](CCCNC(=N)N)C(=O)N[C@@H](CCC(N)=O)C(=O)N[C@@H](CCCCN)C(=O)N[C@@H](CCCCN)C(=O)N[C@@H](CCC(N)=O)C(=O)N[C@@H](CCCNC(=N)N)C(=O)N[C@@H](CCC(=O)O)C(=O)N[C@@H](CCC(N)=O)C(=O)N[C@@H](C)C(=O)N[C@@H](CCC(=O)O)C(=O)N[C@H](C(=O)N[C@@H](CC(N)=O)C(=O)NC(C)(C)C(=O)N[C@@H](CCC(N)=O)C(=O)N[C@H](C(=O)N[C@@H](CC(C)C)C(=O)N[C@@H](C)C(=O)N[C@@H](CCC(N)=O)C(=O)N[C@H](C(N)=O)C(C)C)[C@@H](C)CC)[C@@H](C)O)[C@@H](C)CC)C(C)C)C(C)C [compound 71] (H-IVLSLDVPIKLK([AEEA-AEEA-γGlu-C18 diacid])K[Aib]LLEQERQKKQREQAETN[Aib]QILAQV-NH2; N-terminus assumed)
6 | 2.6 nM | CC[C@H](C)[C@H](N)C(=O)N[C@H](C(=O)N[C@@H](CC(C)C)C(=O)N[C@@H](CO)C(=O)N[C@@H](CC(C)C)C(=O)N[C@@H](CC(=O)O)C(=O)N[C@H](C(=O)N1CCC[C@H]1C(=O)N[C@H](C(=O)N[C@@H](CCCCN)C(=O)N[C@@H](CC(C)C)C(=O)N[C@@H](CCCCNC(=O)COCCOCCNC(=O)COCCOCCNC(=O)CC[C@H](NC(=O)CCCCCCCCCCCCCCCCC(=O)O)C(=O)O)C(=O)N[C@@H](CCC(N)=O)C(=O)N[C@H](C(=O)N[C@@H](CC(C)C)C(=O)N[C@@H](CC(C)C)C(=O)N[C@@H](CCC(=O)O)C(=O)N[C@@H](CCC(N)=O)C(=O)N[C@@H](CCC(=O)O)C(=O)N[C@@H](CCCNC(=N)N)C(=O)N[C@@H](CCC(N)=O)C(=O)N[C@@H](CCCCN)C(=O)N[C@@H](CCCCN)C(=O)N[C@@H](CCC(N)=O)C(=O)N[C@@H](CCCNC(=N)N)C(=O)N[C@@H](CCC(N)=O)C(=O)N[C@@H](CCCCN)C(=O)N[C@@H](C)C(=O)N[C@@H](CCC(=O)O)C(=O)N[C@H](C(=O)N[C@@H](CC(N)=O)C(=O)NC(C)(C)C(=O)N[C@@H](CCC(N)=O)C(=O)N[C@H](C(=O)N[C@@H](CC(C)C)C(=O)N[C@@H](C)C(=O)N[C@@H](CCC(N)=O)C(=O)N[C@H](C(N)=O)C(C)C)[C@@H](C)CC)[C@@H](C)O)[C@@H](C)CC)[C@@H](C)CC)C(C)C)C(C)C [compound 73] (H-IVLSLDVPIKLK([AEEA-AEEA-γGlu-C18 diacid])QILLEQERQKKQRQKAETN[Aib]QILAQV-NH2)
